Molecular target: GABA-A receptor; anion channel
Assay: Inhibition of [3H]flunitrazepam binding to GABA-A central benzodiazepine receptor of bovine cerebral cortical membranes
Design: species or system Bos taurus

**Q.** `O=c1cc(-c2cccc([N+](=O)[O-])c2)oc2ccc([N+](=O)[O-])cc12` was tested. Which Ki did it give?
**A.** The Ki was 0.012 µM.

**Q.** For `O=c1cc(-c2ccc([N+](=O)[O-])cc2)oc2ccc([N+](=O)[O-])cc12`, which Ki is on record?
**A.** The Ki was 17 µM.
